System: GT1-7 cells
Test: Patch-clamp of GABA-induced currents (IGABA) in GT1-7 cells
Assay type: cell-based
Conditions: 100 nM in electrolyte, GABA EC20, 20 min time course
Procedure: Patch-clamp recordings were made from GT1-7 cells. The magnitude of the GABA-induced currents (IGABA) at EC20 agonists concentration were then measured, in the presence of control electrolyte or that supplemented with 100 nM ALLO, or 100 nM ORG OD 02-0 over a time course of 20 min.

CC(=O)[C@H]1CC[C@H]2[C@@H]3CC[C@H]4C[C@H](O)CC[C@]4(C)[C@H]3CC[C@]12C [ALLO, Allopregnanolone]
GABA-evoked currents recorded from GT1-7 cells: sustained increases

— patent US20230116196A1, “METHOD OF TREATING CNS DISORDERS WITH NEU[…] GABAERGIC COMPOUNDS” (priority 2017, published 2023)
